{"source": "paper PMC8524858", "about": "“Dual inhibition of αvβ6 and αvβ1 reduces fibrogenesis in lung tissue explants from patients with IPF” (Respiratory Research, 2021)", "key": {"human integrin αvβ5": {"target": "T1, human integrin αvβ5 (Homo sapiens, UniProt P06756+P18084)", "T1 construct": "purchased R&D Systems 2528-AV", "T1 sequence (P06756 31-992 limits assumed)": "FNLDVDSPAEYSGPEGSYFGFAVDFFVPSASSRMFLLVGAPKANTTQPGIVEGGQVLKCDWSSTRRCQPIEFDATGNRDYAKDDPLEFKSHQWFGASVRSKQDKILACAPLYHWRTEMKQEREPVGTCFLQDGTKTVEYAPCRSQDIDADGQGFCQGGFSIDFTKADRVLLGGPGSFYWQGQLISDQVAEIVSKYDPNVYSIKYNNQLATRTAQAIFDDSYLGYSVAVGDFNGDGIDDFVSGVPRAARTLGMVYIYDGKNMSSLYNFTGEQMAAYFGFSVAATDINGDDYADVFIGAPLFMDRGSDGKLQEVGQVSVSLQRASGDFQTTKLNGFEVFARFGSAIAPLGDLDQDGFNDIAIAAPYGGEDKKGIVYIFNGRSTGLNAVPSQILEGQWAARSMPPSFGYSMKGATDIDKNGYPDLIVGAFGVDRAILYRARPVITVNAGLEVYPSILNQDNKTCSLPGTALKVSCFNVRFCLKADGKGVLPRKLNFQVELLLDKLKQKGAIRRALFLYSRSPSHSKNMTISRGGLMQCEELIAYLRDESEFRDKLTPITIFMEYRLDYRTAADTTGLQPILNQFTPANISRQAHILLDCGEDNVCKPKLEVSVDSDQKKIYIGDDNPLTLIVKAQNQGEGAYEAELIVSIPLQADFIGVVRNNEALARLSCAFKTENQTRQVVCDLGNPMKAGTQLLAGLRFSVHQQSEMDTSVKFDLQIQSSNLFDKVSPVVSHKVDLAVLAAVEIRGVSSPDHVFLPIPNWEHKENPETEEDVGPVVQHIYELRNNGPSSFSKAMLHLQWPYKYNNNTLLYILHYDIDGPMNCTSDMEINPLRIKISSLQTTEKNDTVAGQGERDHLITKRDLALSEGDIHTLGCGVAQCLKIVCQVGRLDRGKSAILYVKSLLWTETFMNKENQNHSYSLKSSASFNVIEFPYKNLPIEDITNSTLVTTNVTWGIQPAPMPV", "T1 sequence (P18084 24-719 limits assumed)": "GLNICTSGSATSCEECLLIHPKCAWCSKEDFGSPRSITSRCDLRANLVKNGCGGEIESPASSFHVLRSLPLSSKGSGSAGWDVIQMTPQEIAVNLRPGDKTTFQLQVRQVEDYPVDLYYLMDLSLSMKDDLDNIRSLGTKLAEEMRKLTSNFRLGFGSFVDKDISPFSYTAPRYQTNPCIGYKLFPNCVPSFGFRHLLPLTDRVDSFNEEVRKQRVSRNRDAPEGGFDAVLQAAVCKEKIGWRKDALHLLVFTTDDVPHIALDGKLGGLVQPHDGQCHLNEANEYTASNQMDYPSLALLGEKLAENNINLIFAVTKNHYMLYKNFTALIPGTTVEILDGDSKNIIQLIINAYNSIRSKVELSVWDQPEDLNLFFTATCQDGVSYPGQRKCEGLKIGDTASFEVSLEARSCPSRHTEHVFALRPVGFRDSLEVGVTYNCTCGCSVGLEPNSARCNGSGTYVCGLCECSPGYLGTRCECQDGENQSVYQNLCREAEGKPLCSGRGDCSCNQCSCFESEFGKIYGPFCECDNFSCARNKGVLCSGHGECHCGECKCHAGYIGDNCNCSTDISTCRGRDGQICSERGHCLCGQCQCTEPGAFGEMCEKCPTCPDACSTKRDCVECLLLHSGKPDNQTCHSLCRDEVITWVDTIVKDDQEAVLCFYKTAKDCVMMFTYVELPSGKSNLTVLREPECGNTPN", "test": "Integrin ligand-binding assay, αvβ5 (vitronectin ligand)", "protocol": "(§1) Integrin ligand-binding assays were performed similar to that previously described.\n(§2) Microplates were coated with recombinant human integrins dissolved in PBS (2 µg/ml, overnight at room temperature). Following removal of the coating solution, plates were washed with PBS. Plates were blocked with 200 µL/well of blocking buffer (2% bovine serum albumin [BSA] in PBS) at 37 °C for 1 h. […] Plates were incubated for 2 h at 25 °C, washed, and incubated for 1 h with biotin-labeled anti-fibronectin or anti-LAP antibodies (for αvβ1 or αvβ6/αvβ8, respectively)."}, "human integrin αvβ1": {"target": "T2, human integrin αvβ1 (Homo sapiens, UniProt P05556+P06756)", "T2 construct": "purchased ACROBiosystems or R&D Systems IT1-H52E1 or 6579-AVB", "T2 sequence (P06756 31-992 limits assumed)": "as the sequence (P06756 31-992 limits assumed) above", "T2 sequence (P05556 21-728 limits assumed)": "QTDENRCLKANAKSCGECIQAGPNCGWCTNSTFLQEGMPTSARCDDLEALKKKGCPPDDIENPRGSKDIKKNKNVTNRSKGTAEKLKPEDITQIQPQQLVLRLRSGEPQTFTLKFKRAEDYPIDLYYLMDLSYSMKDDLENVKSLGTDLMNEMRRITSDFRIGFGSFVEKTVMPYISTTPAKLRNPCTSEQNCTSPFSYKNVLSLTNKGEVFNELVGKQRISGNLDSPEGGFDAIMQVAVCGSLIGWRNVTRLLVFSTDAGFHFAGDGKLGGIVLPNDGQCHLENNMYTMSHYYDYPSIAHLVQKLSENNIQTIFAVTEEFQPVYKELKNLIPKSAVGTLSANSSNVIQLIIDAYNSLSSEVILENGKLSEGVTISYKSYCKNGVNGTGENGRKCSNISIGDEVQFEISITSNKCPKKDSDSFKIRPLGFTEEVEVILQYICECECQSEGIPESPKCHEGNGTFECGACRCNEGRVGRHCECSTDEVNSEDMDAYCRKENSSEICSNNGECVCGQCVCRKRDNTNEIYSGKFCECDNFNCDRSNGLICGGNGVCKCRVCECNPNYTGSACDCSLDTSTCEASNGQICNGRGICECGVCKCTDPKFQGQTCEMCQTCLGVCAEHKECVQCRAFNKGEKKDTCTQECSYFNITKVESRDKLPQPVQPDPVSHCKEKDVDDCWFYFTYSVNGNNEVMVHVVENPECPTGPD", "test": "Integrin ligand-binding assay, αvβ1 (fibronectin ligand)", "protocol": "as §1, §2"}, "human integrin αvβ3": {"target": "T3, human integrin αvβ3 (Homo sapiens, UniProt P05106+P06756)", "T3 construct": "purchased R&D Systems 3050-AV", "test": "Integrin ligand-binding assay, αvβ3 (vitronectin ligand)", "protocol": "as §1, §2"}, "[1]": {"target": "T4, αvβ6-induced TGF-β activation (Homo sapiens, UniProt P06756+P18564)", "T4 construct": "expressed in transfected cells; host or cells: SW480 cells stably transfected with β6 (SW-β6), co-cultured with MLEC reporter cells", "T4 sequence (P06756 31-1048)": "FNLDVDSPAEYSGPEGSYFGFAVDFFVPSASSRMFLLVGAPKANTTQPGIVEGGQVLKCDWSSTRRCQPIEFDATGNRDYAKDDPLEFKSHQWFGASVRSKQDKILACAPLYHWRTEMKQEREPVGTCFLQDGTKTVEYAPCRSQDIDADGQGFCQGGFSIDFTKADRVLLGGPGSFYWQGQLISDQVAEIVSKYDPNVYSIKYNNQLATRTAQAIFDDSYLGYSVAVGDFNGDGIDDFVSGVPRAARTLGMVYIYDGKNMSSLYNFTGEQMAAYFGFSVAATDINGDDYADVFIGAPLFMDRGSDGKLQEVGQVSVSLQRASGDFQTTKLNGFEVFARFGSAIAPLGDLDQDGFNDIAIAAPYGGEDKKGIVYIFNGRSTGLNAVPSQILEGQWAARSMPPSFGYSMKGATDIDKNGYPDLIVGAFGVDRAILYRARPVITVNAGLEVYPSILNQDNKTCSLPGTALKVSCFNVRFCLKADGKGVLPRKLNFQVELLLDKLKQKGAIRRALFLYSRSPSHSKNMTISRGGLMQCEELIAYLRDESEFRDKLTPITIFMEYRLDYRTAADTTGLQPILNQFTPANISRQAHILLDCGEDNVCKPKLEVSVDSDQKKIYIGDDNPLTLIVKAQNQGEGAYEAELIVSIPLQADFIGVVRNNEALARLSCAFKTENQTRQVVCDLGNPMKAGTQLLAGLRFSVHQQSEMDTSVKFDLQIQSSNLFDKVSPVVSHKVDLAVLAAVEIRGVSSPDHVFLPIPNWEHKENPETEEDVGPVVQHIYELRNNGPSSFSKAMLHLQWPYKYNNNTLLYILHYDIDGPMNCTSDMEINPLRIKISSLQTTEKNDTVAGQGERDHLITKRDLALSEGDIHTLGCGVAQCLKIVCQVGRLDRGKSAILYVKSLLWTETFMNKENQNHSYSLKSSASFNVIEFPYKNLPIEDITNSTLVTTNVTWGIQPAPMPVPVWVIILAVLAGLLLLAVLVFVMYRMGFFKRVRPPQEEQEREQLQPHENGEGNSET", "T4 sequence (P18564 22-788)": "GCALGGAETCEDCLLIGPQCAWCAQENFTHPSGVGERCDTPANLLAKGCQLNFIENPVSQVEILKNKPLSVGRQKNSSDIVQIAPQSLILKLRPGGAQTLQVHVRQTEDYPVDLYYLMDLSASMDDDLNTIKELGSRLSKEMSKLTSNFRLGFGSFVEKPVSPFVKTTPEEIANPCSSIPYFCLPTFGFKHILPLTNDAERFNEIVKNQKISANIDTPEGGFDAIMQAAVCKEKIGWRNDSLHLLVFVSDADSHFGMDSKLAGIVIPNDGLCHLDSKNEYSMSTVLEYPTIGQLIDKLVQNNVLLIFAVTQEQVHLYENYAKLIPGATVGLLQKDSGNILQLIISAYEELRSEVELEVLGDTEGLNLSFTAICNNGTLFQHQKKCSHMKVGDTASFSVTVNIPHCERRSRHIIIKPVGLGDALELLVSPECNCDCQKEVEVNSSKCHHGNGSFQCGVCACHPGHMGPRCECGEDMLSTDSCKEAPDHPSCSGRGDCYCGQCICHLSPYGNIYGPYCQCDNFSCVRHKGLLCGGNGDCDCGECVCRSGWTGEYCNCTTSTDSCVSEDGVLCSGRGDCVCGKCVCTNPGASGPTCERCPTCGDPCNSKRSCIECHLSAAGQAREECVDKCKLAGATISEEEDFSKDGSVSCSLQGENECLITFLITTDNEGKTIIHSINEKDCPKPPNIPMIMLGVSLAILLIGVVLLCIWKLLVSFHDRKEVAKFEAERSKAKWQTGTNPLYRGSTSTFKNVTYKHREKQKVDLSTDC", "test": "TGF-β co-culture assay, SW-β6 cells with MLEC luciferase reporter cells", "type": "cell-based", "conditions": "integrin αvβ6", "protocol": "(§3) SW-β6 cells and MLECs or CHO-αv cells and MLECs were cultured in 96-well plates with test compounds or antibodies for 20 h at 37 °C in a 5% CO2 incubator. […] Measurement of MLEC luciferase production resulting from αvβ6- or αvβ1-mediated TGF-β activation was performed using the Bright-Glo Luciferase Assay System (Promega; Madison, WI, USA) according to manufacturer’s instruction. Luminescence was quantified by a Tecan Spark 10M plate reader. IC50 curves were generated using Dotmatics software suite with five-parameter logistic curve fitting. Geometric mean IC50 was calculated for each compound from multiple independent analyses."}, "[2]": {"system": "PCLSs prepared from bleomycin-challenged mouse lungs", "test": "Col1a1 expression in PCLSs from bleomycin-challenged mouse lungs", "type": "cell-based", "conditions": "for inhibition of collagen mRNA expression: acutely injured mouse lungs, 3 days, PLN-74809 200 nM, GSK3008348 1000 nM, CWHM-12 1000 nM (Fig. 2B); for IC50: Mus musculus, 72 h, 3 days of treatment, extrapolation from dose-response curve of combined experiments (Fig. S4), read-out: minimum concentration required to reduce Col1a1 mRNA levels by 50%; for effect on Col1a1 gene expression: chronic bleomycin-challenged mouse lungs, 7 days of treatment, nintedanib and pirfenidone at approximate clinical Cmax (Fig. 6C); for concentration for 50% reduction in collagen gene expression relative to concentration approximating Cmax: dose titrations in PCLSs from bleomycin-challenged mouse lungs", "description": "(§4) PCLSs were generated from explanted lung tissue from patients with IPF and cultured as previously described. Mouse PCLSs were generated and cultured as previously described. Messenger ribonucleic acid (mRNA) levels in lysates prepared from snap-frozen tissue slices were quantified via NanoString PlexSet reagents and nCounter SPRINT Profiler (NanoString; Seattle, WA, USA; Additional file 1: Table S2) or TaqMan primers/probes on a Bio-Rad CFX96 thermocycler (Bio-Rad; Hercules, CA, USA; Additional file 1: Table S3).\nMouse PCLSs were generated and cultured based on previously reported methods (E13). Briefly, mice were challenged with bleomycin (Hospira; Lake Forest, IL, USA or Teva; Toronto, ON, Canada), either acutely with a single dose (3 U/kg or 4 U/kg) or chronically with multiple doses (3 U/kg bleomycin followed by four 1 U/kg challenges at 2-week intervals). Fourteen days after the final bleomycin challenge, lungs were harvested and 200 μm-thick slices were cut using a Compresstome VF-300-0Z (Precisionary Instruments).\n(§5) Slices from each individual core (human) or mouse were distributed among the treatment groups to control for variability in the fibrotic injury within the tissue. […] After 3 or 7 days in culture, slices were washed and snap-frozen. Viability of sentinel slices on Days 0/1 and 3/7 was determined using WST-1 Cell Proliferation Reagent (Sigma 5015944001; St Louis, MO, USA).\n(§6) For all figures (except Fig. 2B, Fig. S2, and Fig. S4), snap-frozen tissue slices were incubated in one-third RLT buffer (Qiagen #79216; Venlo, Netherlands) supplemented with 2 mg/ml proteinase K (Sigma-Aldrich #3115887001; St Louis, MO, USA) at 55 °C for 2 h 45 min, with periodic vortexing to generate ribonucleic acid (RNA)-compatible tissue lysate. This lysate was incubated overnight with probes from a custom fibrosis gene panel and NanoString PlexSet reagents (Table S2). The following day, samples were analyzed on a NanoString nCounter SPRINT Profiler (NanoString; Seattle, WA, USA). Messenger RNA (mRNA) counts were normalized to housekeeping genes (GUSB, HPRT1, RPLP0, and/or POLR1B) and total mRNA counts, relative to vehicle-treated control from the same experiment, are reported.\nFor Figs. 2B, S2, and S4, RNA purification and qPCR were performed by Transcriptic, Inc. (Menlo Park, CA, USA) using a proprietary automated protocol. Briefly, RNA was purified on a KingFisher Flex system (Thermo Fisher) and qPCR was performed on a Bio-Rad CFX96 (Bio-Rad; Hercules, CA, USA) with TaqMan primers/probes (Thermo Fisher) listed in Table S3. Ct values were normalized to housekeeping genes (Rn18sRn45s and Hprt) and reported as ddCT and fold change versus the vehicle-treated samples."}, "human integrin αvβ8": {"target": "T5, human integrin αvβ8 (Homo sapiens, UniProt P06756+P26012)", "T5 construct": "purchased R&D Systems 4135-AV", "test": "Integrin ligand-binding assay, αvβ8 (LAP ligand)", "protocol": "as §1, §2"}, "[3]": {"system": "αvβ1-induced TGF-β activation", "test": "TGF-β co-culture assay, CHO-αv cells with MLEC luciferase reporter cells", "type": "cell-based, human", "conditions": "integrin αvβ1", "protocol": "as §3"}, "human integrin αvβ6": {"target": "T6, human integrin αvβ6 (Homo sapiens, UniProt P06756+P18564)", "T6 construct": "purchased ACROBiosystems or R&D Systems IT6-H52E1 or 3817-AV", "T6 sequence (P06756 31-992 limits assumed)": "as the sequence (P06756 31-992 limits assumed) above", "T6 sequence (P18564 22-707 limits assumed)": "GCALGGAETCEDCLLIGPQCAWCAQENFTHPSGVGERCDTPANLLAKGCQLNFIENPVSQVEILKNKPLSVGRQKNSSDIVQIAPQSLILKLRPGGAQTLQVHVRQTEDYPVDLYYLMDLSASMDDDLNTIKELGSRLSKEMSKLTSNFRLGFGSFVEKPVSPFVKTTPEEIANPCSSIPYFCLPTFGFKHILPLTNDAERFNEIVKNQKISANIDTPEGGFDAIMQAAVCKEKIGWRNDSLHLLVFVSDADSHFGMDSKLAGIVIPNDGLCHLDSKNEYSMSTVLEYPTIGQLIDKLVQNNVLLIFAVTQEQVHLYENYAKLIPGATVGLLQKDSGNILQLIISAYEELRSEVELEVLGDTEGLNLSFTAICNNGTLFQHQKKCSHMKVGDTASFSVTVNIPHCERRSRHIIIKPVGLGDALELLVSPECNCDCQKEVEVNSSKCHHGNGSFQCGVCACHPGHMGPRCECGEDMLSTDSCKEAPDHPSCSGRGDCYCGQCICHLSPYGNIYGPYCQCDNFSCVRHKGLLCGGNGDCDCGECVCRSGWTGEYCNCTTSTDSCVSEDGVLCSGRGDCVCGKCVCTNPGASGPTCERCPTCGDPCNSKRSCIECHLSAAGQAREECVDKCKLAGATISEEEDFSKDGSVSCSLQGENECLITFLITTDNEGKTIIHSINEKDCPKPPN", "test": "Integrin ligand-binding assay, αvβ6 (LAP ligand)", "protocol": "as §1, §2"}, "[4]": {"system": "PCLSs prepared from explanted lung tissue from patients with IPF", "test": "Fibrotic gene expression in PCLSs from IPF lung explants", "type": "cell-based, human", "description": "as §4\nHuman PCLSs were generated from lung tissue explants from patients with IPF undergoing transplant surgery and cultured based on previously reported methods (E7-E12). Slices of tissue (400 µm) were cut using a Compresstome VF-300-0Z (Precisionary Instruments; Natick, MA, USA).\nas §5, §6"}, "[5]": {"design": "method as in PMID 25504994", "conditions": "patients with IPF; read-out: approximate clinical maximum observed drug concentration (Cmax); cited from earlier work"}, "[6]": {"conditions": "7 days, PLN-74809 200 nM, nintedanib 75 nM, pirfenidone 50 µM, vs DMSO (Fig. 6A)"}}, "data": [{"smiles": "CC(C)(C)c1cc(Br)cc([C@H](CC(=O)O)NC(=O)CNC(=O)c2cc(O)cc(NC3=NCC(O)CN3)c2)c1", "note": "(stereo partly shown) [CWHM-12, reference compound]", "values": [{"measurement": "IC50", "setting": "human integrin αvβ5", "value": 5.3, "unit": "nM"}, {"measurement": "Fold selectivity (vs αvβ1)", "setting": "human integrin αvβ5; ligand binding", "value": 4.1, "unit": "×"}, {"measurement": "IC50", "setting": "human integrin αvβ1", "value": 1.3, "unit": "nM"}, {"measurement": "Fold selectivity (vs αvβ1)", "setting": "human integrin αvβ1; ligand binding", "value": 1, "unit": "×"}, {"measurement": "IC50", "setting": "human integrin αvβ3", "value": 0.7, "unit": "nM"}, {"measurement": "Fold selectivity (vs αvβ1)", "setting": "human integrin αvβ3; ligand binding", "value": 0.5, "unit": "×"}, {"measurement": "Fold selectivity (vs αvβ1)", "setting": "[1]; TGF-β activation", "value": 159, "unit": "×"}, {"measurement": "IC50", "setting": "[1]", "value": 318, "unit": "nM"}, {"measurement": "inhibition of collagen mRNA expression", "setting": "[2]", "value": "no additional reduction"}, {"measurement": "IC50", "setting": "human integrin αvβ8", "value": 7.3, "unit": "nM"}, {"measurement": "Fold selectivity (vs αvβ1)", "setting": "human integrin αvβ8; ligand binding", "value": 5.6, "unit": "×"}, {"measurement": "Fold selectivity (vs αvβ1)", "setting": "[3]; TGF-β activation", "value": 1, "unit": "×"}, {"measurement": "IC50", "setting": "[3]", "value": 2, "unit": "nM"}, {"measurement": "IC50", "setting": "human integrin αvβ6", "value": 6.1, "unit": "nM"}, {"measurement": "Fold selectivity (vs αvβ1)", "setting": "human integrin αvβ6; ligand binding", "value": 4.7, "unit": "×"}]}, {"smiles": "Cc1cccc(-c2[nH]ncc2-c2ccc(F)c(-c3cnn(CCO)c3)c2)n1", "note": "[Compound R-268712, reference compound]", "values": [{"measurement": "reduction of COL1A1 mRNA expression", "setting": "[4]; 7-day incubation, Compound A 471 nM, 3G9 0.5 µg/ml, PLN-74809 1.82 µM, ALK5i R-268712 1 µM, vs vehicle (Fig. 1A)", "value": "~ 80%"}]}, {"smiles": "Cc1cc(C)n(-c2cccc([C@H](CC(=O)O)CN3CC[C@@H](CCc4ccc5c(n4)NCCC5)C3)c2)n1", "note": "[GSK3008348, (S)-3-(3-(3,5-Dimethyl-1 H-pyrazol-1-yl)phenyl)-4-((R)-3-(2-(5,6,7,8-tetrahydro-1,8-naphthyridin-2-yl)ethyl)pyrrolidin-1-yl)butanoic acid]", "values": [{"measurement": "inhibition of collagen mRNA expression", "setting": "[2]", "value": "no additional reduction"}, {"measurement": "IC50", "setting": "[3]", "value": 17.4, "unit": "nM"}]}, {"smiles": "COC(=O)c1ccc2c(c1)NC(=O)/C2=C(\\Nc1ccc(N(C)C(=O)CN2CCN(C)CC2)cc1)c1ccccc1", "note": "[nintedanib]", "values": [{"measurement": "IC50", "setting": "[2]", "value": 897, "unit": "nM"}, {"measurement": "effect on Col1a1 gene expression", "setting": "[2]", "value": "did not significantly alter"}, {"measurement": "concentration for 50% reduction in collagen gene expression relative to concentration approximating Cmax", "setting": "[2]", "value": "> 10", "unit": "×"}, {"measurement": "Cmax", "setting": "[5]", "value": "~0.075", "unit": "µM"}, {"measurement": "reduction of COL1A1 mRNA expression", "setting": "[4]; [6]", "value": "no effect"}]}, {"smiles": "Cc1ccc(=O)n(-c2ccccc2)c1", "note": "[pirfenidone]", "values": [{"measurement": "IC50", "setting": "[2]", "value": 678000, "unit": "nM"}, {"measurement": "effect on Col1a1 gene expression", "setting": "[2]", "value": "did not significantly alter"}, {"measurement": "concentration for 50% reduction in collagen gene expression relative to concentration approximating Cmax", "setting": "[2]", "value": "> 10", "unit": "×"}, {"measurement": "Cmax", "setting": "[5]", "value": "~50", "unit": "µM"}, {"measurement": "reduction of COL1A1 mRNA expression", "setting": "[4]; [6]", "value": "no effect"}]}]}
